Assay results from patent US20140221475A1, “PLATINUM(IV) COMPLEXES AND PHARMACEUTICAL COMPOSITION CONTAINING THE SAME” (UNITECH CO., LTD., priority 2011, published 2014).

Tests used:
Format in all cases: cell-based
[1] = system: human malignant melanoma cell (G-361); test: Cell proliferation inhibition, MTS method, human malignant melanoma cell G-361
Description: (§1) The test was implemented by using the human lung cancer cell (LU99), two kind of the human gastric cancer cell (KATO III, MKN-45), the human prostate cancer cell (DU145), the human malignant melanoma cell (G-361), the human bladder cancer cell (T24), two kind of the human lymphoma cell (U937, Jurkat E6.1) and the human leukemia cell (HL60) as the cancer cell.
(§2) These cells were suspended in the each culture medium that the serum of 10% was added, and were dispensed in 96-well plate. And then, these were cultured in 5% CO2 at 37 degrees centigrade during a night. The test solution was prepared in the culture medium to the various concentrations, and was dispensed into the plate that the cells were set preliminarily. And further, these were cultured in 5% CO2 at 37 degrees centigrade for three days.
(§3) The cell proliferation after the medicine addition was measured on the 3rd day from the 1st day after the medicine addition by the MTS method (Kit for cell proliferation test manufactured by Promega Company, Cell Titer 96 Aqueous One Solution Cell Proliferation Assay).
(§4) The inhibition rate (%) of the cell proliferation was obtained from the measured MTS value by the following formula.
(§5) Inhibition rate(%)=(1−MTS value of medicine addition group/MTS value of medicine non-addition group)×100
(§6) Because the value which was obtained by the above-mentioned formula represents the inhibition rate of the cell proliferation, the higher the numerical value is, the higher the medicine effect is. It is deemed that the one whose value is 50% or more has the medicine effect.
(§7) The (compound 5) was prepared as the test solution, and the inhibition rate of the cell proliferation was measured by the method similar to the embodiment 7.
(§8) The (compound 6) was prepared as the test solution, and the inhibition rate of the cell proliferation was measured by the method similar to the embodiment 7.

[2] = system: human lung cancer cell (LU99); test: Cell proliferation inhibition, MTS method, human lung cancer cell LU99
Description: as §1, §2, §3, §4, §5, §6, §7, §8

[3] = system: human gastric cancer cell (MKN-45); test: Cell proliferation inhibition, MTS method, human gastric cancer cell MKN-45
Description: as §1, §2, §3, §4, §5, §6, §7, §8

[4] = system: human bladder cancer cell (T24); test: Cell proliferation inhibition, MTS method, human bladder cancer cell T24
Description: as §1, §2, §3, §4, §5
Because the value which was obtained by the above-mentioned formula represents the inhibition rate of the cell proliferation, the higher the numerical value is, the higher the medicine effect is. It is deemed that the one whose value is 50% or more has the medicine effect. […]

[5] = system: human leukemia cell (HL60); test: Cell proliferation inhibition, MTS method, human leukemia cell HL60
Description: (§9) The test solution was prepared by dissolving the (compound 1) into the DMSO (dimethylsulfoxide) with the concentration of 8 mg/ml.
as §1, §2, §3, §4, §5, §6

[6] = system: human lymphoma cell (U937); test: Cell proliferation inhibition, MTS method, human lymphoma cell U937
Description: as §9, §1, §2, §3, §4, §5, §6
(§10) The (compound 2) was prepared as the test solution, and the inhibition rate of the cell proliferation was measured by the method similar to the embodiment 7.

[7] = system: human gastric cancer cell (KATO III); test: Cell proliferation inhibition, MTS method, human gastric cancer cell KATO III
Description: as §9, §1, §2, §3, §4, §5, §6, §10

[8] = system: human lymphoma cell (Jurkat E6.1); test: Cell proliferation inhibition, MTS method, human lymphoma cell Jurkat E6.1
Description: as §9, §1, §2, §3, §4, §5, §6

[9] = system: human prostate cancer cell (DU145); test: Cell proliferation inhibition, MTS method, human prostate cancer cell DU145
Description: as §1, §2, §3, §4, §5, §6, §10

NC1CCCC12CCCC2N.[Cl][Pt]([Cl])([Cl])[Cl] [Compound 5, Tetrachloro((S,S,S)-spiro[4.4]nonane-1,6-diamine)platinum(IV)] was tested. Which “Inhibition rate of cell proliferation after 3 days from medicine addition” value (“Inhibition rate of cell proliferation” for short) ([1]; G-361, 5 μg/ml) did it give?
The value was 83%.

What about the “Inhibition rate of cell proliferation” value ([1]; G-361, 10 μg/ml) of the same molecule?
The value was 95%.

And the “Inhibition rate of cell proliferation” value ([1]; G-361, 20 μg/ml)?
The value was 98%.

And the “Inhibition rate of cell proliferation” value ([2]; LU99, 5 μg/ml)?
Its value is 65%.

What about the “Inhibition rate of cell proliferation” value ([2]; LU99, 10 μg/ml) of the same molecule?
The value was 84%.

And the “Inhibition rate of cell proliferation” value ([2]; LU99, 20 μg/ml)?
Its value is 91%.

And the “Inhibition rate of cell proliferation” value ([3]; MKN-45, 5 μg/ml)?
Its value is 90%.

What about the “Inhibition rate of cell proliferation” value ([3]; MKN-45, 10 μg/ml) of the same molecule?
Its value is 93%.

What about the “Inhibition rate of cell proliferation” value ([3]; MKN-45, 20 μg/ml) of the same molecule?
The value was 87%.

What about the “Inhibition rate of cell proliferation” value ([4]; T24, 5 μg/ml) of the same molecule?
The value was 79%.

What about the “Inhibition rate of cell proliferation” value ([4]; T24, 10 μg/ml) of the same molecule?
Its value is 86%.

And the “Inhibition rate of cell proliferation” value ([4]; T24, 20 μg/ml)?
The value was 80%.

For NC1CCCC12CCCC2N.O=C1CC(=O)[O][Pt]([Cl])([Cl])[O]1 [Compound 1, dichloromalonato((1S,5S,6S)-spiro[4.4]nonane-1,6-diamine)platinum(IV)], which “Inhibition rate of cell proliferation” value ([5]; HL60, 5 μg/ml) is on record?
The value was 91%.

And the “Inhibition rate of cell proliferation” value ([5]; HL60, 10 μg/ml)?
The value was 97%.

What about the “Inhibition rate of cell proliferation” value ([5]; HL60, 20 μg/ml) of the same molecule?
Its value is 99%.

What about the “Inhibition rate of cell proliferation” value ([6]; U937, 5 μg/ml) of the same molecule?
The value was 98%.

What about the “Inhibition rate of cell proliferation” value ([6]; U937, 10 μg/ml) of the same molecule?
The value was 102%.

And the “Inhibition rate of cell proliferation” value ([6]; U937, 20 μg/ml)?
The value was 101%.

What about the “Inhibition rate of cell proliferation” value ([7]; 5 μg/ml) of the same molecule?
The value was 53%.

What about the “Inhibition rate of cell proliferation” value ([7]; 10 μg/ml) of the same molecule?
The value was 75%.

What about the “Inhibition rate of cell proliferation” value ([7]; 20 μg/ml) of the same molecule?
Its value is 88%.

What about the “Inhibition rate of cell proliferation” value ([8]; Jurkat E6.1, 5 μg/ml) of the same molecule?
The value was 92%.

And the “Inhibition rate of cell proliferation” value ([8]; Jurkat E6.1, 10 μg/ml)?
The value was 97%.

And the “Inhibition rate of cell proliferation” value ([8]; Jurkat E6.1, 20 μg/ml)?
Its value is 100%.

Which results are given for NC1CCCC12CCCC2N.O=C1CC(=O)[O][Pt]([Cl])([Cl])[O]1 [Compound 2, Dichloro complexes (G) of the malonato((R,R,R)-spiro[4,4]nonane-1,6-diamine)platinum(IV)]?
Inhibition rate of cell proliferation after 3 days from medicine addition ([9]; DU145, 5 μg/ml): 51%; Inhibition rate of cell proliferation after 3 days from medicine addition ([9]; DU145, 10 μg/ml): 76%; Inhibition rate of cell proliferation after 3 days from medicine addition ([9]; DU145, 20 μg/ml): 84%; Inhibition rate of cell proliferation after 3 days from medicine addition ([6]; U937, 5 μg/ml): 100%; Inhibition rate of cell proliferation after 3 days from medicine addition ([6]; U937, 10 μg/ml): 100%; Inhibition rate of cell proliferation after 3 days from medicine addition ([6]; U937, 20 μg/ml): 100%; Inhibition rate of cell proliferation after 3 days from medicine addition ([7]; 5 μg/ml): 78%; Inhibition rate of cell proliferation after 3 days from medicine addition ([7]; 10 μg/ml): 90%; Inhibition rate of cell proliferation after 3 days from medicine addition ([7]; 20 μg/ml): 82%; Inhibition rate of cell proliferation after 3 days from medicine addition ([4]; T24, 5 μg/ml): 52%; Inhibition rate of cell proliferation after 3 days from medicine addition ([4]; T24, 10 μg/ml): 77%; Inhibition rate of cell proliferation after 3 days from medicine addition ([4]; T24, 20 μg/ml): 87%

With O=C1[O][Pt]2([NH][C@@H]3CCCC[C@H]3[NH]2)[O]C1=O [Oxaliplatin, oxaliplatin, reference compound] as the molecule, how does the “Inhibition rate of cell proliferation” value ([9]; DU145, 5 μg/ml) read?
Its value is 46%.

And the “Inhibition rate of cell proliferation” value ([9]; DU145, 10 μg/ml)?
Its value is 71%.

And the “Inhibition rate of cell proliferation” value ([9]; DU145, 20 μg/ml)?
The value was 81%.

And the “Inhibition rate of cell proliferation” value ([1]; G-361, 5 μg/ml)?
The value was 50%.

What about the “Inhibition rate of cell proliferation” value ([1]; G-361, 10 μg/ml) of the same molecule?
Its value is 59%.

What about the “Inhibition rate of cell proliferation” value ([1]; G-361, 20 μg/ml) of the same molecule?
The value was 74%.

And the “Inhibition rate of cell proliferation” value ([2]; LU99, 5 μg/ml)?
Its value is 38%.

What about the “Inhibition rate of cell proliferation” value ([2]; LU99, 10 μg/ml) of the same molecule?
The value was 40%.

And the “Inhibition rate of cell proliferation” value ([2]; LU99, 20 μg/ml)?
The value was 49%.

What about the “Inhibition rate of cell proliferation” value ([5]; HL60, 5 μg/ml) of the same molecule?
Its value is 73%.

What about the “Inhibition rate of cell proliferation” value ([5]; HL60, 10 μg/ml) of the same molecule?
The value was 86%.

What about the “Inhibition rate of cell proliferation” value ([5]; HL60, 20 μg/ml) of the same molecule?
The value was 93%.

And the “Inhibition rate of cell proliferation” value ([6]; U937, 5 μg/ml)?
The value was 67%.

What about the “Inhibition rate of cell proliferation” value ([6]; U937, 10 μg/ml) of the same molecule?
Its value is 90%.

And the “Inhibition rate of cell proliferation” value ([6]; U937, 20 μg/ml)?
Its value is 99%.

What about the “Inhibition rate of cell proliferation” value ([7]; 5 μg/ml) of the same molecule?
The value was 58%.

What about the “Inhibition rate of cell proliferation” value ([7]; 10 μg/ml) of the same molecule?
The value was 75%.

And the “Inhibition rate of cell proliferation” value ([7]; 20 μg/ml)?
Its value is 87%.

And the “Inhibition rate of cell proliferation” value ([3]; MKN-45, 5 μg/ml)?
The value was 73%.

And the “Inhibition rate of cell proliferation” value ([3]; MKN-45, 10 μg/ml)?
The value was 82%.

And the “Inhibition rate of cell proliferation” value ([3]; MKN-45, 20 μg/ml)?
Its value is 87%.

What about the “Inhibition rate of cell proliferation” value ([4]; T24, 5 μg/ml) of the same molecule?
The value was 38%.

And the “Inhibition rate of cell proliferation” value ([4]; T24, 10 μg/ml)?
The value was 43%.

And the “Inhibition rate of cell proliferation” value ([4]; T24, 20 μg/ml)?
Its value is 48%.

And the “Inhibition rate of cell proliferation” value ([8]; Jurkat E6.1, 5 μg/ml)?
The value was 90%.

And the “Inhibition rate of cell proliferation” value ([8]; Jurkat E6.1, 10 μg/ml)?
Its value is 94%.

What about the “Inhibition rate of cell proliferation” value ([8]; Jurkat E6.1, 20 μg/ml) of the same molecule?
Its value is 97%.

NC1CCCC12CCCC2N.[Cl][Pt]([Cl])([Cl])[Cl] [Compound 6, tetrachloro((R,R,R)-spiro[4.4]nonane-1,6-diamine)platinum(IV)] was tested. Which “Inhibition rate of cell proliferation” value ([1]; G-361, 5 μg/ml) did it give?
Its value is 89%.

What about the “Inhibition rate of cell proliferation” value ([1]; G-361, 10 μg/ml) of the same molecule?
Its value is 96%.

And the “Inhibition rate of cell proliferation” value ([1]; G-361, 20 μg/ml)?
The value was 98%.

And the “Inhibition rate of cell proliferation” value ([2]; LU99, 5 μg/ml)?
The value was 89%.

What about the “Inhibition rate of cell proliferation” value ([2]; LU99, 10 μg/ml) of the same molecule?
The value was 96%.

What about the “Inhibition rate of cell proliferation” value ([2]; LU99, 20 μg/ml) of the same molecule?
Its value is 98%.

What about the “Inhibition rate of cell proliferation” value ([3]; MKN-45, 5 μg/ml) of the same molecule?
Its value is 88%.

What about the “Inhibition rate of cell proliferation” value ([3]; MKN-45, 10 μg/ml) of the same molecule?
Its value is 80%.

What about the “Inhibition rate of cell proliferation” value ([3]; MKN-45, 20 μg/ml) of the same molecule?
The value was 76%.

And the “Inhibition rate of cell proliferation” value ([4]; T24, 5 μg/ml)?
The value was 78%.

And the “Inhibition rate of cell proliferation” value ([4]; T24, 10 μg/ml)?
The value was 81%.

What about the “Inhibition rate of cell proliferation” value ([4]; T24, 20 μg/ml) of the same molecule?
The value was 81%.
